The supplement of paper PMC11208160

test: recombinant barcode read abundance after kanamycin selection (control-corrected) (log10(CPM+1)); higher = more efficient recombination; sequences stand for … in AGTGCAGAGAAAATCGGCCAGTTTTCTCTGCCTGCAGTCCGCATGCCGT…AGATTTATGCAGCGGACTGCCTTTCTCCCAAAGTGATAAACCGGACAGTATCATGGACCGGTTTTCCCGGTAATCCGTATTTGCAAGGTTGGTTTCACT; site = the 11-nt target
Method in brief: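 Oligos holding a promoter, target, barcode and the J23119-driven first 104 bases of the bridge RNA were Gibson-cloned into a vector that supplied the other 73 bp plus a T7-inducible recombinase. This library was co-electroporated with a donor plasmid into E. coli. Two replicates went on chloramphenicol/ampicillin LB agar (control) and two on chloramphenicol/ampicillin/kanamycin with 0.1 mM IPTG. Recombination efficiency is read from averaged, control-corrected barcode counts per million at recombinant junctions, reported as log10(CPM+1).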
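Also: IS621 recombinase and bridge RNA in Escherichia coli cells.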

| Sequence | recombinant barcode read abundance (log10) |
| --- | --- |
| GATTCTCCTTGGGTTCTAACCTGTTGCCT (site GATTCTCCTAC) | 0.0529 |
| GGTCGCGCTTGGGTTCTAACCTGTTGCCT (site GGTCGGGCTAG) | 0.832 |
| CTTAACACTTGGGTTCTAACCTGTTGCCG (site TCATGACCTAT) | 0.0383 |
| GTCAATCCTTGGGTTCTAACCTGTTGCTG (site GTCAACCCTCA) | 0.288 |
| GTAACCTCTTGGGTTCTAACCTGTTGCCA (site GTAACCTCTGG) | 0.0508 |
| CCGCTACCTTGGGTTCTAACCTGTTGCCT (site CGGCTACCTAG) | 0.103 |
| AATGGGTCTTGGGTTCTAACCTGTTGCTT (site AATGGGTCTAA) | 1.71 |
| TCCGAGACTTGGGTTCTAACCTGTTGCCG (site TCCGAGACTCG) | 1.93 |
| GCCGAGTCTTGGGTTCTAACCTGTTGCTC (site GCCGAGTCTTA) | 0.371 |
| TCGGAGTCTTGGGTTCTAACCTGTTGCGT (site TCGGAGTCTAT) | 2.39 |
| TCTTAGACTTGGGTTCTAACCTGTTGCCG (site TCTTAGACTAG) | 0.231 |
| CCACGGTCTTGGGTTCTAACCTGTTGCCT (site CCACTGTCTAG) | 0.033 |
| GCTAGGACTTGGGTTCTAACCTGTTGCTG (site GCTAGGACTCA) | 2.12 |
| TCGAATTCTTGGGTTCTAACCTGTTGCCT (site TCGAATTCTAG) | 0.109 |
| AGCCACACTTGGGTTCTAACCTGTTGCGT (site TGCCAGACTAC) | 0.183 |
| ACGTTGTCTTGGGTTCTAACCTGTTGCCT (site ACCTTGTCTAG) | 0.0624 |
| GCATCGTCTTGGGTTCTAACCTGTTGCCT (site GCATCGTCTAG) | 0.649 |
| GGTGACCCTTGGGTTCTAACCTGTTGCAT (site TCGTGAGCTCA) | 0.97 |
| TGCGAGTCTTGGGTTCTAACCTGTTGCCT (site TGCAAGTCTAG) | 0.626 |
| ATGGGTCCTTGGGTTCTAACCTGTTGCCG (site ATGGGTCCTCG) | 2.21 |
| CATCGGACTTGGGTTCTAACCTGTTGCAG (site ACATAAGCTAG) | 0.139 |
| AACTTATCTTGGGTTCTAACCTGTTGCCT (site AACTTATCTAG) | 0.812 |

| Sequence | recombinant barcode read abundance (log10) |
| --- | --- |
| TATGCGCCTTGGGTTCTAACCTGTTGCCT (site CATGTGCCTAG) | 0.149 |
| TAGGATACTTGGGTTCTAACCTGTTGCAG (site TAGGATACTCT) | 2.5 |
| TCCCTATCTTGGGTTCTAACCTGTTGCCT (site TGCCTATCTAG) | 0.0386 |
| GACTTGTCTTGGGTTCTAACCTGTTGCGG (site GACTTGTCTCC) | 1.59 |
| ACTAAGACTTGGGTTCTAACCTGTTGCTG (site AGTAAGACTTA) | 0.0302 |
| AAAGGGACTTGGGTTCTAACCTGTTGCCT (site AAGGAGACTAG) | 0.191 |
| TCCAACCCTTGGGTTCTAACCTGTTGCAG (site TCCAAACCTCT) | 0.066 |
| GCGCGAACTTGGGTTCTAACCTGTTGCCT (site GCGCGAACTAG) | 0.608 |
| GGTAGATCTTGGGTTCTAACCTGTTGCTT (site GGTAGATCTAA) | 0.599 |
| CAATGCTCTTGGGTTCTAACCTGTTGCCT (site CAGTGCTCTTG) | 0.113 |
| TACAGTACTTGGGTTCTAACCTGTTGCCT (site CACAGTACTAG) | 0.326 |
| CACGCGTCTTGGGTTCTAACCTGTTGCTG (site CACGCGTCTCA) | 0.746 |
| ACTTAGTCTTGGGTTCTAACCTGTTGCTC (site TGCCCCGCTAG) | 0.0305 |
| CGGAGCCCTTGGGTTCTAACCTGTTGCGG (site AGGAGCCCTTC) | 0.0728 |
| ACGGGTACTTGGGTTCTAACCTGTTGCCA (site ACGGGTACTTG) | 1.02 |
| GACAAACCTTGGGTTCTAACCTGTTGCGG (site GACACAACTCC) | 0.0381 |
| ATAAATCCTTGGGTTCTAACCTGTTGCCT (site ATAAATCCTAG) | 0.632 |
| ACTAGTCCTTGGGTTCTAACCTGTTGCGT (site ACTAGTCCTAC) | 2.25 |
| GTACGAGCTTGGGTTCTAACCTGTTGCCG (site GTACGAGCTCG) | 0.848 |
| CCTGGGACTTGGGTTCTAACCTGTTGCGA (site CCTGGGACTGC) | 0.961 |
| TAGCCTGCTTGGGTTCTAACCTGTTGCCT (site TAGGCTGCTAG) | 0.026 |
| GAGTCGCCTTGGGTTCTAACCTGTTGCCT (site GAGTCGTCTAG) | 0.118 |

| Sequence | recombinant barcode read abundance (log10) |
| --- | --- |
| CTAAACCCTTGGGTTCTAACCTGTTGCGT (site CTACACCCTTC) | 0.0729 |
| ATACGGACTTGGGTTCTAACCTGTTGCAG (site ATACGGACTCT) | 2.77 |
| CGGAATGCTTGGGTTCTAACCTGTTGCCT (site CGAAATGCTAG) | 0.198 |
| TGATCTACTTGGGTTCTAACCTGTTGCTT (site TGGTCTACTAA) | 0.0447 |
| CCGCTGTCTTGGGTTCTAACCTGTTGCCT (site CCGCTGTCTAG) | 0.394 |
| CTCCGAGCTTGGGTTCTAACCTGTTGCTA (site CTCCGAGCTTA) | 0.0161 |
| GTACGTCCTTGGGTTCTAACCTGTTGCCT (site GTACGTCCTAG) | 0.482 |
| CATGATACTTGGGTTCTAACCTGTTGCCT (site ATCTTGTCTCC) | 0.0865 |
| TTCAAATCTTGGGTTCTAACCTGTTGCCT (site TTCAAAACTAG) | 0.0847 |
| GAAGGGCCTTGGGTTCTAACCTGTTGCCT (site GAAGCGCCTAG) | 0.225 |
| CTCAATACTTGGGTTCTAACCTGTTGCGA (site CTCAATTCTTT) | 0.0435 |
| CTAAACCCTTGGGTTCTAACCTGTTGCGT (site CTAAACCCTAC) | 2.85 |
| ACAAGGCCTTGGGTTCTAACCTGTTGCCT (site GCAAGGCCTAG) | 0.126 |
| TTGATATCTTGGGTTCTAACCTGTTGCCT (site TTGAGATCTAG) | 0.0244 |
| GCTCACTCTTGGGTTCTAACCTGTTGCTT (site GTTCCCTCTAA) | 0.0084 |
| GGTTAGCCTTGGGTTCTAACCTGTTGCCT (site GGTTAGCCTAG) | 0.579 |
| ATATGGGCTTGGGTTCTAACCTGTTGCCG (site ATATGAGCTCG) | 0.369 |
| ACAAAGCCTTGGGTTCTAACCTGTTGCCT (site ACAAAACCTAG) | 0.49 |
| AAGATACCTTGGGTTCTAACCTGTTGCTT (site AAGATACCTAA) | 1.29 |
| GGGTCCACTTGGGTTCTAACCTGTTGCGG (site GGGTCCACTCC) | 2.02 |
| GATCGGACTTGGGTTCTAACCTGTTGCGG (site GTTCGGACTCC) | 0.596 |
| GCGCATGCTTGGGTTCTAACCTGTTGCCT (site GTGCCTGCTAG) | 0.41 |

| Sequence | recombinant barcode read abundance (log10) |
| --- | --- |
| AAGGCCTCTTGGGTTCTAACCTGTTGCTT (site AAGGCCTCTAA) | 2.74 |
| CCACACTCTTGGGTTCTAACCTGTTGCCT (site CGACACTCTAG) | 0.0247 |
| GCAGGGACTTGGGTTCTAACCTGTTGCAG (site GCACGGACTCT) | 0.552 |
| GAGTTGCCTTGGGTTCTAACCTGTTGCCT (site GAGTTGCCTAG) | 1.05 |
| CTTTAATCTTGGGTTCTAACCTGTTGCCT (site CTTCAATCTAG) | 0.158 |
| CTCTCGTCTTGGGTTCTAACCTGTTGCAT (site CTCTCGTCTAG) | 0.0361 |
| GGCGTGCCTTGGGTTCTAACCTGTTGCGT (site AAGAACTCTTG) | 0.0755 |
| AGTCATTCTTGGGTTCTAACCTGTTGCAT (site AGTCATTCTAT) | 0.45 |
| GCCAACCCTTGGGTTCTAACCTGTTGCTT (site GCCAACCCTAC) | 0.0528 |
| TAGGATACTTGGGTTCTAACCTGTTGCAC (site TAGGATACTTT) | 0.107 |
| TTCGGACCTTGGGTTCTAACCTGTTGCGG (site TTCGGACCTCC) | 2.62 |
| GGGACTTCTTGGGTTCTAACCTGTTGCAT (site GGGCCTTCTAT) | 0.0615 |
| CTCGTTGCTTGGGTTCTAACCTGTTGCCT (site GTCGTTGCTAG) | 0.0989 |
| TACTACCCTTGGGTTCTAACCTGTTGCCT (site TTCTACCCTAG) | 0.0291 |
| GGAGGGGCTTGGGTTCTAACCTGTTGCCT (site TGAGGTGCTAG) | 0.0107 |
| CCTACATCTTGGGTTCTAACCTGTTGCCT (site CCTACACCTAG) | 0.115 |
| ACAAACCCTTGGGTTCTAACCTGTTGCCT (site ACAAACCCTAG) | 0.812 |
| GCCTATGCTTGGGTTCTAACCTGTTGCCT (site GTCTATGCTAG) | 0.0718 |
| TTCGGACCTTGGGTTCTAACCTGTTGCGG (site GGGACCACTTA) | 0.677 |
| TGCGCCACTTGGGTTCTAACCTGTTGCCT (site TGCGCTACTAG) | 0.0797 |
